PubChem BioAssay AID1963829 (Molecular Pharmacology Branch, DTP, NCI, 2024)

Test system: 935938-334-R-J1-PDC complex spheroid viability
Assay: Anticancer human tumor 935938-334-R-J1-PDC patient-derived small intestine adenocarcinoma cell line growth inhibition [POLQ]
Conditions: for IC50: curve of first compound; for viability, T/C: stronger effect = lower value; active = viability on the fitted dose curve at most 10% of control; inactive = the rest
How it was run: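 PDC + HUVEC + MSC complex spheroids; POLQ inhibitors ± partner drugs; top conc. at/near clinical Cmax, else 10 microM (SN-38 1 microM), half-log dilutions; 37 degrees C, 5% CO2.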

[1] = second compound 0.0316 µM, first compound 0.0316 µM
[2] = second compound 0.0316 µM, first compound 0.1 µM
[3] = second compound 0.0316 µM, first compound 0.316 µM
[4] = second compound 0.0316 µM, first compound 1 µM
[5] = second compound 0.0316 µM, first compound 3.16 µM
[6] = second compound 0.0316 µM, first compound 10 µM
[7] = second compound 0.1 µM, first compound 0.0316 µM
[8] = second compound 0.1 µM, first compound 0.1 µM
[9] = second compound 0.1 µM, first compound 0.316 µM
[10] = second compound 0.1 µM, first compound 1 µM
[11] = second compound 0.1 µM, first compound 3.16 µM
[12] = second compound 0.1 µM, first compound 10 µM
[13] = second compound 0.316 µM, first compound 0.0316 µM
[14] = second compound 0.316 µM, first compound 0.1 µM
[15] = second compound 0.316 µM, first compound 0.316 µM
[16] = second compound 0.316 µM, first compound 1 µM
[17] = second compound 0.316 µM, first compound 3.16 µM
[18] = second compound 0.316 µM, first compound 10 µM
[19] = second compound 1 µM, first compound 0.0316 µM
[20] = second compound 1 µM, first compound 0.1 µM
[21] = second compound 1 µM, first compound 0.316 µM
[22] = second compound 1 µM, first compound 1 µM
[23] = second compound 1 µM, first compound 3.16 µM
[24] = second compound 1 µM, first compound 10 µM
[25] = second compound 3.16 µM, first compound 0.0316 µM
[26] = second compound 3.16 µM, first compound 0.1 µM
[27] = second compound 3.16 µM, first compound 0.316 µM
[28] = second compound 3.16 µM, first compound 1 µM
[29] = second compound 3.16 µM, first compound 3.16 µM
[30] = second compound 3.16 µM, first compound 10 µM
[31] = second compound 10 µM, first compound 0.0316 µM
[32] = second compound 10 µM, first compound 0.1 µM
[33] = second compound 10 µM, first compound 0.316 µM
[34] = second compound 10 µM, first compound 1 µM
[35] = second compound 10 µM, first compound 3.16 µM
[36] = second compound 10 µM, first compound 10 µM
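Note: spheroids exposed to drugs for seven days before viability read.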
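Throughout, for viability, T/C: 100% = DMSO vehicle control wells.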

CNCc1ccc(-c2[nH]c3cc(F)cc4c3c2CCNC4=O)cc1 + Cc1cccc(N(C)C(=O)C2C(O)CCN2c2nc(C)cc(C(F)(F)F)c2C#N)c1
inactive: viability, T/C [1] 90.2% | viability, T/C [2] 97.7% | viability, T/C [3] 101% | viability, T/C [4] 115% | viability, T/C [5] 108% | viability, T/C [6] 81.8% | viability, T/C [7] 107% | viability, T/C [8] 64.9% | viability, T/C [9] 78.2% | viability, T/C [10] 94.9% | viability, T/C [11] 90.6% | viability, T/C [12] 76.8% | viability, T/C [13] 85.5% | viability, T/C [14] 94.5% | viability, T/C [15] 97.2% | viability, T/C [16] 97.2% | viability, T/C [17] 125% | viability, T/C [18] 99.9% | viability, T/C [19] 106% | viability, T/C [20] 78.6% | viability, T/C [21] 88.5% | viability, T/C [22] 100% | viability, T/C [23] 93.2% | viability, T/C [24] 112% | viability, T/C [25] 88.9% | viability, T/C [26] 118% | viability, T/C [27] 88.1% | viability, T/C [28] 102% | viability, T/C [29] 133% | viability, T/C [30] 99.5% | viability, T/C [31] 122% | viability, T/C [32] 80.7% | viability, T/C [33] 96.2% | viability, T/C [34] 83.2% | viability, T/C [35] 121% | viability, T/C [36] 102%
> 10 µM: IC50 (second compound 0.0316 µM) | IC50 (second compound 0.1 µM) | IC50 (second compound 0.316 µM) | IC50 (second compound 1 µM) | IC50 (second compound 3.16 µM) | IC50 (second compound 10 µM)

Nc1ccn(C2OC(CO)C(O)C2(F)F)c(=O)n1 (stereo not drawn) + Cc1cccc(N(C)C(=O)C2C(O)CCN2c2nc(C)cc(C(F)(F)F)c2C#N)c1
inactive: viability, T/C [1] 40.4% | viability, T/C [2] 27.8% | viability, T/C [3] 23.1% | viability, T/C [4] 21% | viability, T/C [5] 18.2% | viability, T/C [6] 16.3% | viability, T/C [7] 32.9% | viability, T/C [8] 29.7% | viability, T/C [9] 21.4% | viability, T/C [10] 21.1% | viability, T/C [11] 20.2% | viability, T/C [12] 21.2% | viability, T/C [13] 40.2% | viability, T/C [14] 30.9% | viability, T/C [15] 23.2% | viability, T/C [16] 23.4% | viability, T/C [17] 18.8% | viability, T/C [18] 18.1% | viability, T/C [19] 37.4% | viability, T/C [20] 27.7% | viability, T/C [21] 26.6% | viability, T/C [22] 23.2% | viability, T/C [23] 22.8% | viability, T/C [24] 19.9% | viability, T/C [25] 37.3% | viability, T/C [26] 33.8% | viability, T/C [27] 24.8% | viability, T/C [28] 19.2% | viability, T/C [29] 23.2% | viability, T/C [30] 20.3% | viability, T/C [31] 39.2% | viability, T/C [32] 35.4% | viability, T/C [33] 29.2% | viability, T/C [34] 23.3% | viability, T/C [35] 26.2% | viability, T/C [36] 19.2%
< 0.0316 µM: IC50 (second compound 0.0316 µM) | IC50 (second compound 0.1 µM) | IC50 (second compound 0.316 µM) | IC50 (second compound 1 µM) | IC50 (second compound 3.16 µM) | IC50 (second compound 10 µM)

O=C(c1cc(Cc2n[nH]c(=O)c3ccccc23)ccc1F)N1CCN(C(=O)C2CC2)CC1 + Cc1cccc(N(C)C(=O)C2C(O)CCN2c2nc(C)cc(C(F)(F)F)c2C#N)c1
> 10 µM: IC50 (second compound 0.0316 µM) | IC50 (second compound 0.1 µM) | IC50 (second compound 0.316 µM) | IC50 (second compound 1 µM) | IC50 (second compound 3.16 µM)
inactive: viability, T/C [1] 72.1% | viability, T/C [2] 93.2% | viability, T/C [3] 59.6% | viability, T/C [4] 96.7% | viability, T/C [5] 74.1% | viability, T/C [6] 65.8% | viability, T/C [7] 76.3% | viability, T/C [8] 81% | viability, T/C [9] 73.3% | viability, T/C [10] 97.3% | viability, T/C [11] 71.1% | viability, T/C [12] 63.7% | viability, T/C [13] 92.8% | viability, T/C [14] 108% | viability, T/C [15] 89.8% | viability, T/C [16] 89.6% | viability, T/C [17] 69.4% | viability, T/C [18] 58.1% | viability, T/C [19] 89.7% | viability, T/C [20] 86.8% | viability, T/C [21] 135% | viability, T/C [22] 85.1% | viability, T/C [23] 78.1% | viability, T/C [24] 69.9% | viability, T/C [25] 88.5% | viability, T/C [26] 99.2% | viability, T/C [27] 97.5% | viability, T/C [28] 85.2% | viability, T/C [29] 68.8% | viability, T/C [30] 54.5% | viability, T/C [31] 95.3% | viability, T/C [32] 78.7% | viability, T/C [33] 87.2% | viability, T/C [34] 88.2% | viability, T/C [35] 82.3% | viability, T/C [36] 47.5%
9.21 µM: IC50 (second compound 10 µM)

O=c1[nH]cc(F)c(=O)[nH]1 + Cc1cccc(N(C)C(=O)C2C(O)CCN2c2nc(C)cc(C(F)(F)F)c2C#N)c1
inactive: viability, T/C [1] 131% | viability, T/C [2] 113% | viability, T/C [3] 94.2% | viability, T/C [4] 84% | viability, T/C [5] 74.2% | viability, T/C [6] 56.1% | viability, T/C [7] 106% | viability, T/C [8] 127% | viability, T/C [9] 93% | viability, T/C [10] 76.7% | viability, T/C [11] 67.4% | viability, T/C [12] 67.7% | viability, T/C [13] 84% | viability, T/C [14] 122% | viability, T/C [15] 124% | viability, T/C [16] 82.4% | viability, T/C [17] 78% | viability, T/C [18] 68.2% | viability, T/C [19] 110% | viability, T/C [20] 94.9% | viability, T/C [21] 122% | viability, T/C [22] 91.7% | viability, T/C [23] 73.7% | viability, T/C [24] 64% | viability, T/C [25] 120% | viability, T/C [26] 126% | viability, T/C [27] 97.5% | viability, T/C [28] 78.3% | viability, T/C [29] 65.3% | viability, T/C [30] 67.2% | viability, T/C [31] 99.1% | viability, T/C [32] 142% | viability, T/C [33] 87.1% | viability, T/C [34] 95% | viability, T/C [35] 68% | viability, T/C [36] 65.9%
> 10 µM: IC50 (second compound 0.0316 µM) | IC50 (second compound 0.1 µM) | IC50 (second compound 0.316 µM) | IC50 (second compound 1 µM) | IC50 (second compound 3.16 µM) | IC50 (second compound 10 µM)
